# Data from paper PMC6213020, “Identification of a Novel PPAR-γ Agonist through a Scaffold Tuning Approach” (International Journal of Molecular Sciences, 2018).
# Assays:
# [1] = target: T1, PPAR-δ (Homo sapiens, UniProt Q03181); experiment: cell-based PPAR transactivation (luciferase) assay, PPAR-δ; conditions: compounds 10 µM; relative to maximum activation with GW0742 (10 μM); PPAR-Luc in HEK293t cells; read-out: % max PPAR-δ
# T1 construct: host or cells: HEK293t
# T1 sequence (Q03181 1-441): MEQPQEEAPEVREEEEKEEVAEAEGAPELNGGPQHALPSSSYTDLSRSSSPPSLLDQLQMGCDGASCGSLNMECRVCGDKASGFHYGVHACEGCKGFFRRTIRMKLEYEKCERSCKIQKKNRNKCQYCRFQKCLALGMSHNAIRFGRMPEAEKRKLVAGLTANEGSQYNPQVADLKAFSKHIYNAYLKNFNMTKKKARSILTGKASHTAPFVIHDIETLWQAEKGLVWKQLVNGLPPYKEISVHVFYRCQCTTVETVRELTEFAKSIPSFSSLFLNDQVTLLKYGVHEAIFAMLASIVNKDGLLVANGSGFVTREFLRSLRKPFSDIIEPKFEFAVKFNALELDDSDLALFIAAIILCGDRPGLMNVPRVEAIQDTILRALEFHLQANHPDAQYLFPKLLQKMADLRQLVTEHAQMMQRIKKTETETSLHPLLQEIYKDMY
# Description: (§1) The PPAR activities of the synthesized dichloroanilide-linked indole analogs were assessed using a standard cell-based transactivation assay in CV-1 cells. GW7647 [42], pioglitazone, and GW0742 [43] were used as positive controls for PPAR-α, -γ, and -δ, respectively. These three positive controls presented the maximum activation for each PPAR subtype. The activity of the compounds was presented as the activation percentage (%) relative to the maximum values of the positive controls at the indicated concentrations.
# (§2) Transient transfection and luciferase assay was carried out. CV-1 cells were seeded in 48-well plates at a density of 1.5 × 10^5 cells/well in Dulbecco’s modified Eagle’s medium (DMEM) with containing 10% fetal bovine serum (FBS). The cells were transiently transfected with plasmid mixtures containing PPAR-α/γ expression vector and tk-PPRE-luciferase (Luc) vector for 6 h and then treated with the samples for 24 h. HEK293t cells were seeded in a 60-mm dish at a density of 1.5 × 10^6 cells/dish. After transfection with the plasmid mixtures containing PPAR-δ expression vector and Luc vector for 6 h, the cells were transferred to a 96-well plate and treated with the samples. To normalize the transfection efficiency, a β-galactosidase plasmid was cotransfected. The luciferase activity in the cell lysates was measured using a luciferase assay system (Promega Corp., Madison, WI, USA), and the β-galactosidase activity was determined by measuring the absorbance at 410 nm using an ELISA plate reader. The data were expressed as the relative luciferase activity divided by the β-galactosidase activity. All constructs were kindly gifted by Dr. Ronald M. Evans at The Salk Institute (La Jolla, CA, USA).
# [2] = target: T2, PPAR-α (Homo sapiens, UniProt Q07869); experiment: cell-based PPAR transactivation (luciferase) assay, PPAR-α; conditions: 24 h; compounds 10 µM; relative to maximum activation with GW7647 (10 µM); PPAR-Luc in CV-1 cells; read-out: % max PPAR-α
# T2 construct: host or cells: CV-1
# T2 sequence (Q07869 1-468): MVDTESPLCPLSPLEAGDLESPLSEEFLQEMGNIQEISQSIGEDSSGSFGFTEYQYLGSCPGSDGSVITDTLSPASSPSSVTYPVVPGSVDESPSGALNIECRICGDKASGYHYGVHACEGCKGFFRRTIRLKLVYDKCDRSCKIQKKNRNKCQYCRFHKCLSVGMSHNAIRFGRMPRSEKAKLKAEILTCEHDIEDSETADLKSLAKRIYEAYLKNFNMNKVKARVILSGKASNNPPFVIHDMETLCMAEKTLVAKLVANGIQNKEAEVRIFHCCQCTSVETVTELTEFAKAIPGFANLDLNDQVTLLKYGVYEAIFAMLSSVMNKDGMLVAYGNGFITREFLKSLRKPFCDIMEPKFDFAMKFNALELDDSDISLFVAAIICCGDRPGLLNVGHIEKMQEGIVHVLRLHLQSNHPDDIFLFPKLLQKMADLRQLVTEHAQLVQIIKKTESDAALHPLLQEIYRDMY
# Description: as §1, §2
# [3] = target: T3, PPAR-γ (Homo sapiens, UniProt P37231); experiment: cell-based PPAR transactivation (luciferase) assay, PPAR-γ; conditions: for activation at 10 µM: 24 h, compounds 10 µM, relative to maximum activation with pioglitazone (10 µM), PPAR-Luc in CV-1 cells, read-out: % max PPAR-γ; for agonistic activity to PPARs, in words: transactivation assay, all PPAR subtypes
# T3 construct: host or cells: CV-1
# T3 sequence (P37231 1-505): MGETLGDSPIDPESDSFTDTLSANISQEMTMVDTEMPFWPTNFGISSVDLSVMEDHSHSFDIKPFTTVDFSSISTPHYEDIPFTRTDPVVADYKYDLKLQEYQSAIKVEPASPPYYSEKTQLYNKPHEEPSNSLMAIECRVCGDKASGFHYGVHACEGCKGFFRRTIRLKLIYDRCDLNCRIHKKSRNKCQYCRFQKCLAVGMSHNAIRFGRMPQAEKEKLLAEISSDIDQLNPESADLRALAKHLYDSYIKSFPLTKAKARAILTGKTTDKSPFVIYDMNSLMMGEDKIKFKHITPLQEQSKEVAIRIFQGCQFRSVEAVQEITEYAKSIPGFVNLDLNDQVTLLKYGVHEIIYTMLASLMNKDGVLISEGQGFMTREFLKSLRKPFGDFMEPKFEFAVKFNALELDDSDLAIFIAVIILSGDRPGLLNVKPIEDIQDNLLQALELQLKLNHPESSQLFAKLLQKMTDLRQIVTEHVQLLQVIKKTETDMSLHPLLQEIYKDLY
# Description: as §1, §2
# [4] = test system: db/db mice; set-up: method as in PMID 21482466, PMID 23265886, PMID 25982078; conditions: cited from earlier work
SMILES,activation at 10 µM [1] [%],activation at 10 µM [2] [%],activation at 10 µM [3] [%],"agonistic activity to PPARs, in words [3]",accumulation of lipids and size of the adipocytes [4],blood glucose level [4],glycated hemoglobin (HbA1c) level [4],insulin level [4],weight gain [4]
"O=C(COc1ccc2ccn(Cc3ccc(C(=O)O)cc3)c2c1)Nc1ccc(Cl)cc1Cl [Compound 17, 4-((6-(2-((2,4-Dichlorophenyl)amino)-2-oxoethoxy)-1H-indol-1-yl)methyl)benzoic acid]",4.87 ± 0.24,-14.4 ± 0.16,-0.84 ± 0.16,,,,,,
"O=C(O)Cc1cn(Cc2ccccc2)c2ccc(OCC(=O)Nc3ccc(Cl)cc3Cl)cc12 [Compound 7, 2-(1-Benzyl-5-(2-((2,4-dichlorophenyl)amino)-2-oxoethoxy)-1H-indol-3-yl)acetic acid]",44.4 ± 0.77,21.41 ± 0.21,31.2 ± 0.38,,,,,,
"CC(C)=CCc1cn(Cc2ccccc2C(=O)O)c2ccc(OCC(=O)Nc3ccc(Cl)cc3Cl)cc12 [Compound 20, 2-((5-(2-((2,4-Dichlorophenyl)amino)-2-oxoethoxy)-3-(3-methylbut-2-en-1-yl)-1H-indol-1-yl)methyl)benzoic acid]",8.92 ± 0.48,-5.93 ± 0.14,5.1 ± 0.2,,,,,,
"O=C(COc1ccc2c(Cc3ccccc3)cn(Cc3ccccc3C(=O)O)c2c1)Nc1ccc(Cl)cc1Cl [Compound 19, 2-((3-Benzyl-6-(2-((2,4-dichlorophenyl)amino)-2-oxoethoxy)-1H-indol-1-yl)methyl)benzoic acid]",19.4 ± 0.54,7.25 ± 0.12,19.03 ± 0.13,,,,,,
"CC(C)=CCc1cn(Cc2ccccc2C(=O)O)c2cc(OCC(=O)Nc3ccc(Cl)cc3Cl)ccc12 [Compound 21, 2-((6-(2-((2,4-Dichlorophenyl)amino)-2-oxoethoxy)-3-(3-methylbut-2-en-1-yl)-1H-indol-1-yl)methyl)benzoic acid]",22.2 ± 0.59,-2.3 ± 0.19,9.55 ± 0.32,,,,,,
O=C(O)Cc1cn(Cc2ccccc2)c2ccc(OCCCOc3cccc(OCc4ccc(Cl)cc4)c3)cc12 [Compound 2],,,,,reduced,lowered,lowered,lowered,without causing weight gain
"O=C(COc1ccc2c(ccn2Cc2ccc(C(=O)O)cc2)c1)Nc1ccc(Cl)cc1Cl [Compound 16, 4-((5-(2-((2,4-Dichlorophenyl)amino)-2-oxoethoxy)-1H-indol-1-yl)methyl)benzoic acid]",-1.07 ± 0.14,-19.98 ± 0.08,0.29 ± 0.06,,,,,,
"O=C(COc1ccc2c(ccn2Cc2cccc(C(=O)O)c2)c1)Nc1ccc(Cl)cc1Cl [Compound 14, 3-((5-(2-((2,4-Dichlorophenyl)amino)-2-oxoethoxy)-1H-indol-1-yl)methyl)benzoic acid]",23.9 ± 0.51,10.33 ± 0.07,42 ± 0.52,,,,,,

# The next lines start with results.
activation at 10 µM [1] [%],activation at 10 µM [2] [%],activation at 10 µM [3] [%],"agonistic activity to PPARs, in words [3]",SMILES,accumulation of lipids and size of the adipocytes [4],blood glucose level [4],glycated hemoglobin (HbA1c) level [4],insulin level [4],weight gain [4]
11.8 ± 0.35,-38.13 ± 0.06,5.6 ± 0.14,minimum agonistic activities,"O=C(O)Cc1c[nH]c2ccc(OCC(=O)Nc3ccc(Cl)cc3Cl)cc12 [Compound 5, 2-(5-(2-((2,4-Dichlorophenyl)amino)-2-oxoethoxy)-1H-indol-3-yl)acetic acid]",,,,,
8.27 ± 0.33,1.12 ± 0.24,8.66 ± 0.23,minimum agonistic activities,"O=C(O)Cc1c[nH]c2cc(OCC(=O)Nc3ccc(Cl)cc3Cl)ccc12 [Compound 6, 2-(6-(2-((2,4-Dichlorophenyl)amino)-2-oxoethoxy)-1H-indol-3-yl)acetic acid]",,,,,
65.4 ± 0.7,31.68 ± 0.22,71.9 ± 0.91,,"O=C(O)Cc1cn(Cc2ccccc2)c2cc(OCC(=O)Nc3ccc(Cl)cc3Cl)ccc12 [Compound 8, 2-(1-Benzyl-6-(2-((2,4-dichlorophenyl)amino)-2-oxoethoxy)-1H-indol-3-yl)acetic acid]",,,,,
